Publication PMC6273820, “Antimicrobial Activity and Stability of Short and Long Based Arachnid Synthetic Peptides in the Presence of Commercial Antibiotics” (Molecules, 2016)
In brackets after ≈: the same amount, converted by molar mass. Read-outs that look alike come from different tables or passages of the source. Where no end group is shown, it is not given here.

What was measured:
[1] = system: Escherichia coli ATCC 25922; experiment: microbe, parasite or virus in culture; type: cell-based; conditions: for MIC: Escherichia coli, read-out: Minimal Inhibitory Concentration, E. coli
Description: It was determined using the broth microdilution assay in accordance with the procedures from the Clinical and Laboratory Standards Institute. For broth microdilution assays, pathogenic bacteria, such as Escherichia coli ATCC 25922, Staphylococcus aureus ATCC 25923, Pseudomonas aeruginosa ATCC 27853 and Klebsiella pneumoniae ST258, were cultured in Mueller-Hinton broth (MHB) at 37 °C until an end point between of 0.08 and 0.13 units of absorbance at 625 nm and diluted 1:100 in MHB (ca. […]). Fifty microliters of this bacterial suspension was dispensed into each well of a 96-well microtiter Costar® culture plates (Sigma Aldrich) having 50 µL of MHB containing a proper concentration of pure AMPs, antibiotics or the mixture of either of the AMPs with either of the antibiotics used. Dilutions of peptides and antibiotics were made manually with two-fold dilutions. […]

[2] = system: Pseudomonas aeruginosa ATCC 27853; experiment: microbe, parasite or virus in culture; type: cell-based; conditions: for MIC: Pseudomonas aeruginosa, read-out: Minimal Inhibitory Concentration, P. aureginosa
Description: (§1) It was determined using the broth microdilution assay in accordance with the procedures from the Clinical and Laboratory Standards Institute. For broth microdilution assays, pathogenic bacteria, such as Escherichia coli ATCC 25922, Staphylococcus aureus ATCC 25923, Pseudomonas aeruginosa ATCC 27853 and Klebsiella pneumoniae ST258, were cultured in Mueller-Hinton broth (MHB) at 37 °C until an end point between of 0.08 and 0.13 units of absorbance at 625 nm and diluted 1:100 in MHB (ca. […]). Fifty microliters of this bacterial suspension was dispensed into each well of a 96-well microtiter Costar® culture plates (Sigma Aldrich) having 50 µL of MHB containing a proper concentration of pure AMPs, antibiotics or the mixture of either of the AMPs with either of the antibiotics used. Dilutions of peptides and antibiotics were made manually with two-fold dilutions.
(§2) E. coli, S. aureus, P. aeruginosa and K. pneumoniae were grown in the presence of each of the four AMPs, and in the presence of each of the eight commercial antibiotics, which were Levofloxacin, Trimethoprim, Sulfamethoxazole, Azithromycin, Amoxicillin, Ceftriaxone, Gentamicin and Vancomycin, and in combinations of AMPs and the antibiotics. That is, the antimicrobial capacity of each AMP (50, 25, 12.5 and 6.2 µg/ mL) in combination with each antibiotic agent (50, 25, 12.5, 3.2, 1.6 and 0 µg/ mL) was measured as described above. For evaluation of the effect of the mixtures, the fractional inhibitory concentration (FIC) was calculated for each antibiotic in each combination. The following formulas were used to calculate the FIC index: FIC of AMP = MIC of AMP in combination with Antibiotic/MIC of AMP alone; FIC of Antibiotic = MIC of Antibiotic in combination with AMP/MIC of Antibiotic alone, and FIC index = FIC of AMP + FIC of Antibiotic. Synergy was defined as an FIC index of <0.5. Additive was defined as an FIC index of >0.5 but of <4, and finally antagonism was defined as an FIC index of >4.

[3] = system: Staphylococcus aureus ATCC 25923; experiment: microbe, parasite or virus in culture; type: cell-based; conditions: for MIC: Staphylococcus aureus, read-out: Minimal Inhibitory Concentration, S. aureus
Description: as §1, §2

[4] = system: Klebsiella pneumoniae ST258; experiment: microbe, parasite or virus in culture; type: cell-based; conditions: for MIC: Klebsiella pneumoniae, ST258, 18 h; for Minimal Inhibitory Concentration, K. pneumoniae: broth microdilution (CLSI), Mueller-Hinton broth, 18 h at 37 °C, A625nm, peptides n = 8
Description: as §1
as §2, with “That” for “E. coli, S. aureus, P. aeruginosa and K. pneumoniae were grown in the presence of each of the four AMPs, and in the presence of each of the eight commercial antibiotics, which were Levofloxacin, Trimethoprim, Sulfamethoxazole, Azithromycin, Amoxicillin, Ceftriaxone, Gentamicin and Vancomycin, and in combinations of AMPs and the antibiotics. That”

[5] = Stability in human blood plasma; type: in vitro ADME; conditions: 50 μg/mL; for Peptide found after incubation in human blood plasma: 12 h at 37 °C, extraction, reverse phase HPLC at 230 nm, ESI-MS; for Recovery after interaction with human plasma, first few minutes of dilution: extracted after the first few minutes of dilution, reverse phase HPLC
Description: (§3) The four synthetic peptides were subjected to incubation in human blood plasma or in the supernatant of S. aureus and P. aeruginosa growth. The AMPs were diluted in human blood plasma or in the supernatant of bacterial growth (50 μg/mL) and incubated at 37 °C for 12 h. After peptide extraction, the AMPs were separated by reverse phase HPLC using a C18 column (Vydac 218 TP54, Grace Co.) and a linear gradient of acetonitrile in 0.1% aqueous TFA from 0 to 60% in 60 min at a flow rate of 1 mL/min. Effluent absorbance was monitored at 230 nm. Peptide fractions were dried under vacuum, resuspended and analyzed by ESI-MS to confirm their molecular masses.

[6] = Stability in supernatant of S. aureus growth; type: in vitro ADME, Staphylococcus aureus; conditions: 50 μg/mL, 12 h at 37 °C, extraction, reverse phase HPLC at 230 nm
Description: as §3

[7] = Stability in supernatant of P. aeruginosa growth; type: in vitro ADME, Pseudomonas aeruginosa; conditions: 50 μg/mL, 12 h at 37 °C, extraction, reverse phase HPLC at 230 nm
Description: as §3

[8] = cited from earlier work
From the text: Concerning AMPs, several physicochemical characteristics have been associated with the biological activity of them. Those that are relevant include hydrophobicity, the helical hydrophobic moment, as well as the size and the net charge of the peptide. However, no particular value relating to any of these characteristics was solely sufficient to correlate with the antimicrobial activity of the AMPs tested. In this case, however, the larger peptides FA1 and Pin2[G] were the AMPs that manifested optimum biological performance. Nevertheless, a fine balance in terms of physicochemical pr ...

[9] = read-out: Minimal Inhibitory Concentration, K. pneumoniae
[10] = dose-response in Muller-Hinton broth, Figure 3D
[11] = ATCC25922, broth microdilution (CLSI), Mueller-Hinton broth, 18 h at 37 °C, A625nm, peptides n = 8
[12] = ATCC27853, broth microdilution (CLSI), Mueller-Hinton broth, 18 h at 37 °C, A625nm, peptides n = 8
[13] = ATCC25923, broth microdilution (CLSI), Mueller-Hinton broth, 18 h at 37 °C, A625nm, peptides n = 8
[14] = broth microdilution (CLSI), Mueller-Hinton broth, 18 h at 37 °C, A625nm, peptides n = 8

CC1(C)S[C@@H]2[C@H](NC(=O)[C@H](N)c3ccc(O)cc3)C(=O)N2[C@H]1C(=O)O [Amoxicillin]
MIC ([1]; ATCC25922, 18 h): 12.5 µg/mL (≈ 34.2 µM)
Susceptibility of P. aeruginosa in words [2]: resistant
MIC ([2]; ATCC27853, 18 h): > 50 µg/mL
MIC ([3]; ATCC25923, 18 h): 1.5 µg/mL
MIC ([4]; read-out: Antibiotic (MIC)): > 50 µg/mL
MIC [4, 9]: > 50 µg/mL
Antibiotic concentration in whose presence K. pneumoniae could grow (up to) [4, 10]: up to 50 µg/mL

CC[C@H]1OC(=O)[C@H](C)[C@@H](O[C@H]2C[C@@](C)(OC)[C@@H](O)[C@H](C)O2)[C@H](C)[C@@H](O[C@@H]2O[C@H](C)C[C@H](N(C)C)[C@H]2O)[C@](C)(O)C[C@@H](C)CN(C)[C@H](C)[C@@H](O)[C@]1(C)O [Azithromycin]
MIC [1, 11]: 1.5 µg/mL (≈ 2 µM)
MIC [2, 12]: 12.5 µg/mL
MIC [3, 13]: 3.1 µg/mL
MIC ([4]; read-out: Antibiotic (MIC)): > 50 µg/mL
MIC [4, 9]: > 50 µg/mL
Antibiotic concentration in whose presence K. pneumoniae could grow (up to) [4, 10]: up to 50 µg/mL

CO/N=C(\C(=O)N[C@@H]1C(=O)N2C(C(=O)O)=C(CSc3nc(=O)c(=O)[nH]n3C)CS[C@H]12)c1csc(N)n1 [Ceftriaxone]
MIC [1, 11]: 1.5 µg/mL (≈ 2.7 µM)
MIC [2, 12]: 12.5 µg/mL
MIC [3, 13]: 1.5 µg/mL
MIC ([4]; read-out: Antibiotic (MIC)): > 50 µg/mL
MIC [4, 9]: > 50 µg/mL
Antibiotic concentration in whose presence K. pneumoniae could grow (up to) [4, 10]: up to 50 µg/mL

CNC(C)C1CCC(N)C(OC2C(N)CC(N)C(OC3OCC(C)(O)C(NC)C3O)C2O)O1 (stereo not shown) [Gentamicin]
MIC [1, 11]: 1.5 µg/mL (≈ 3.14 µM)
MIC [2, 12]: 1.5 µg/mL
MIC [3, 13]: 1.5 µg/mL
MIC [4, 9]: 12.5 µg/mL
MIC ([4]; antibiotic alone against K. pneumoniae, based on Figure 3, read-out: Antibiotic (MIC)): 12.5 µg/mL
Susceptibility of K. pneumoniae in words [4, 10]: susceptible

C[C@H]1COc2c(N3CCN(C)CC3)c(F)cc3c(=O)c(C(=O)O)cn1c23 [Levofloxacin]
MIC [1, 11]: 1.5 µg/mL (≈ 4.15 µM)
MIC [2, 12]: 1.5 µg/mL
MIC [3, 13]: 1.5 µg/mL
MIC ([4]; read-out: Antibiotic (MIC)): 50 µg/mL
MIC [4, 9]: 50 µg/mL
Antibiotic concentration in whose presence K. pneumoniae could grow (up to) [4, 10]: up to 25 µg/mL

Cc1cc(NS(=O)(=O)c2ccc(N)cc2)no1 [Sulfamethoxazole]
Susceptibility of E. coli in words [1]: to some extent
MIC ([1]; ATCC25922, 18 h): > 50 µg/mL
Susceptibility of P. aeruginosa in words [2]: resistant
MIC ([2]; ATCC27853, 18 h): > 50 µg/mL
Susceptibility of S. aureus in words [3]: resistance
MIC ([3]; ATCC25923, 18 h): > 50 µg/mL
MIC ([4]; read-out: Antibiotic (MIC)): > 50 µg/mL
MIC [4, 9]: > 50 µg/mL

COc1cc(Cc2cnc(N)nc2N)cc(OC)c1OC [Trimethoprim]
MIC ([1]; ATCC25922, 18 h): 1.5 µg/mL (≈ 5.17 µM)
Susceptibility of P. aeruginosa in words [2]: resistant
MIC ([2]; ATCC27853, 18 h): > 50 µg/mL
MIC ([3]; ATCC25923, 18 h): 1.5 µg/mL
MIC ([4]; read-out: Antibiotic (MIC)): > 50 µg/mL
MIC [4, 9]: > 50 µg/mL
Antibiotic concentration in whose presence K. pneumoniae could grow (up to) [4, 10]: up to 50 µg/mL

CN[C@H](CC(C)C)C(=O)N[C@H]1C(=O)N[C@@H](CC(N)=O)C(=O)N[C@H]2C(=O)N[C@H]3C(=O)N[C@H](C(=O)N[C@H](C(=O)O)c4cc(O)cc(O)c4-c4cc3ccc4O)[C@H](O)c3ccc(c(Cl)c3)Oc3cc2cc(c3O[C@@H]2O[C@H](CO)[C@@H](O)[C@H](O)[C@H]2O[C@H]2C[C@](C)(N)[C@H](O)[C@H](C)O2)Oc2ccc(cc2Cl)[C@H]1O [Vancomycin]
MIC [1, 11]: > 50 µg/mL
Susceptibility of E. coli in words ([1]; dose-response in Muller-Hinton broth, Figure 3C): resistance
MIC [2, 12]: > 50 µg/mL
Susceptibility of P. aeruginosa in words ([2]; dose-response in Muller-Hinton broth, Figure 3B): resistant
MIC [3, 13]: 1.5 µg/mL
MIC ([4]; read-out: Antibiotic (MIC)): > 50 µg/mL
MIC [4, 9]: > 50 µg/mL
Antibiotic concentration in whose presence K. pneumoniae could grow (up to) [4, 10]: up to 50 µg/mL

FWGALAKGALKLIGSLFSSFSKKD [Pin2[G]]
Minimal Inhibitory Concentration, E. coli [1, 14]: 50 µg/mL
Minimal Inhibitory Concentration, P. aureginosa [2, 14]: >50 µg/mL
Minimal Inhibitory Concentration, S. aureus [3, 14]: 25 µg/mL
Peptide (MIC) ([4]; peptide alone against K. pneumoniae, based on Figure 2): >50 µg/mL
Peptide found after incubation in human blood plasma [5]: One quarter
Stability in supernatants of S. aureus [6]: not cleaved
Stability in supernatants of P. aeruginosa [7]: not cleaved
hemolytic activity [8]: 1.4 µM

FWGLKGLKKFSKKL [Pin2[14]]
Minimal Inhibitory Concentration, E. coli [1, 14]: >50 µg/mL
Minimal Inhibitory Concentration, P. aureginosa [2, 14]: >50 µg/mL
Minimal Inhibitory Concentration, S. aureus [3, 14]: >50 µg/mL
Minimal Inhibitory Concentration, K. pneumoniae [4]: >50 µg/mL
Peptide found after incubation in human blood plasma [5]: not found
Recovery after interaction with human plasma, first few minutes of dilution [5]: none
Stability in supernatants of S. aureus [6]: not cleaved
hemolytic activity [8]: 418 µM

GILKTIKSIASKLKRKAK [P18K]
Minimal Inhibitory Concentration, E. coli [1, 14]: >50 µg/mL
Minimal Inhibitory Concentration, P. aureginosa [2, 14]: >50 µg/mL
Minimal Inhibitory Concentration, S. aureus [3, 14]: >50 µg/mL
Minimal Inhibitory Concentration, K. pneumoniae [4]: >50 µg/mL
Peptide found after incubation in human blood plasma [5]: neither was P18K obtained
Recovery after interaction with human plasma, first few minutes of dilution [5]: none
Stability in supernatants of S. aureus [6]: probably sequestered or cleaved
Stability in supernatants of P. aeruginosa [7]: probably sequestered or cleaved
hemolytic activity [8]: 923 µM
